Patent US11077113B2, “6-aryl-4-morpholin-1-ylpyridone compounds useful for the treatment of cancer and diabetes” (priority 2016, dated 2021)

Key:
Vps34 enzyme = Vps34 enzyme (Homo sapiens (Human), UniProt Q8NEB9); assay: Vps34 Biochemical Assay (Adapta TR-FRET); conditions: 20 μM ATP and 200 μM PI:PS in substrate mix, 1 h at room temperature, read-out: Median IC50 μM Adapta
Description: Dilution series of compounds of the invention were prepared in DMSO at 100 times the final assay concentration (n1=n0/3 in 10 points). The compounds were further diluted to 4 times the assay concentration in assay buffer (Life technologies buffer Q, PV5125, diluted 5 times supplemented with 2 mM DTT and 2 mM MnCl2). 2.5 μl of the diluted compounds were added to a 384 well assay plate followed by 2.5 μl of 16.5 nM Vps34 enzyme (Life technologies, PV5126). Enzyme and compounds were preincubated at rt for 15 min. Then 5 μl of substrate mix containing 20 μM ATP (Life technologies, PV3227) and 200 μM PI:PS substrate (Life technologies, PV5122) in assay buffer was added to the wells containing compound and enzyme and mixing was performed by pipetting several times. The reaction was incubated at room temperature for 1 h. Then 5 μl stop-detection mix, prepared as described in the adapta kinase assay kit instructions (Life technologies, PV5099) containing Adapta Eu-anti-ADP antibody (2.3 nM), Alexa Fluor 647 ADP tracer (9 nM) and EDTA (30 mM) in TR-FRET buffer, was added to quench the reaction. Mixing was performed by pipetting several times. The assay plate was then incubated at room temperature for 30 min and read with Artemis micro plate reader. Percent inhibition of the compounds as compared to DMSO treated control samples was calculated. By the use of Dotmatics software compound concentration versus percent inhibition was fitted to generate IC50 values.

autophagy in HOS cells = assay: High Content Screening Autophagy Assay (GFP-LC3 foci); assay type: cell-based; conditions: Homo sapiens; HOS cells expressing GFP-LC3; autophagy activated with KU-0063794 500 nM plus Bafilomycin A1 5 nM; 6 hours; foci area per cell; read-out: Median IC50 μM Cellular assay
Description: High Content Screening Autophagy Assay
Human osteosarcoma cells (HOS) stably expressing a Green Fluorescent Protein (GFP) tagged LC3 (GFP-LC3) were used to determine the inhibitory effect on autophagy of proprietary compounds. For that purpose, autophagy was activated by using the mTOR inhibitor KU-0063794 at 500 nM in the presence of Bafilomycin A1 (Sigma-Aldrich) at 5 nM. Shortly, cells were plated overnight in clear bottom 96-well plates in DMEM-High Modified media (Hi-Clone Cat #SH30285.01). At the start of the experiment, the media was removed and replaced with fresh media containing the mTOR inhibitor, Bafilomycin A1 and the vehicle or a test compound as indicated. After 6 hours the media was removed, cells were washed twice with ice-cold phosphate buffered saline (PBS) and fixed with 4% paraformaldehyde for 20 minutes at room temperature. Then the cells were washed twice with ice-cold PBS before adding Hoechst 33342 at 1 μg/ml in PBS for nuclear staining. After incubation overnight at 4° C., cells were washed once with PBS to remove the excess of dye and 100 μl of PBS was added to each well. Images were acquired at 20× magnification, 6 images per well, using the ImageXpress automated microscope (Molecular Devices Inc.) and analyzed with MetaXpress software to identify LC3-GFP foci. Foci area per cell values were used to generate dose response curves and IC50 calculated using non-linear fitting analysis in GraphPad Prism software.
The results of the assay are shown in Table 2 (Median IC50 μM Cellular assay).

Sequence of Vps34 enzyme (Q8NEB9 whole entry): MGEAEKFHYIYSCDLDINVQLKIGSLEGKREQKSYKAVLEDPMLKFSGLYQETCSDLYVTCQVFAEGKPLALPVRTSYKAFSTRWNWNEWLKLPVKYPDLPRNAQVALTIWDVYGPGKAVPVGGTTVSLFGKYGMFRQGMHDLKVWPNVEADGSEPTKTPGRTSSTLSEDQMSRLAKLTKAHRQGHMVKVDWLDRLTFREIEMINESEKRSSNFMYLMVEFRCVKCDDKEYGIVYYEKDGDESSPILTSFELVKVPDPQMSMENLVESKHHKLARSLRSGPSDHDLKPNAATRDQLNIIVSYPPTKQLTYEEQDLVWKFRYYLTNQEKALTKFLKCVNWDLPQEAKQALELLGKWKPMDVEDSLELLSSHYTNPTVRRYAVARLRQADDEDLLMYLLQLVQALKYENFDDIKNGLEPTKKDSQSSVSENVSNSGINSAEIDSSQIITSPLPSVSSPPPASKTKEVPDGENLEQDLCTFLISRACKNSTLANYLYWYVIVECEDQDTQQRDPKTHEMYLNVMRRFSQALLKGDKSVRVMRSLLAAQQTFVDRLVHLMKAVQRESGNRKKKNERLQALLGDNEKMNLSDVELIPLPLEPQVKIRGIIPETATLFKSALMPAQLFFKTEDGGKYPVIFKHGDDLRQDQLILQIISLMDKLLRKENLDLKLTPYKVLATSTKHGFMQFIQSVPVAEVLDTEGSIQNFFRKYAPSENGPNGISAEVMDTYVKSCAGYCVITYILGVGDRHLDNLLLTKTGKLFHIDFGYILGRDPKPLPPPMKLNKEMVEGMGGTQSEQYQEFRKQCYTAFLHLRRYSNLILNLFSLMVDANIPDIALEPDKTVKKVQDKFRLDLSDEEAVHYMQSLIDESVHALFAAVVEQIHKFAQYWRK

SMILES	IC50 (Vps34 enzyme) [µM]	IC50 (autophagy in HOS cells) [µM]
O=c1cc(N2CCOCC2)cc(-c2ccccc2Cl)[nH]1 [Example 1, 6-(2-chlorophenyl)-4-morpholino-1H-pyridin-2-one]	0.03	2
Cn1c(-c2ccccc2Cl)cc(N2CCOCC2)cc1=O [Example 2, 6-(2-chlorophenyl)-1-methyl-4-morpholino-pyridin-2-one]	0.05	3
CC1COCCN1c1cc(-c2ccccc2Cl)[nH]c(=O)c1 (stereo not drawn) [Example 3, 6-(2-chlorophenyl)-4-(3-methylmorpholin-4-yl)-1H-pyridin-2-one]	0.01	0.7
CC1COCCN1c1cc(-c2ccccc2Cl)n(C)c(=O)c1 (stereo not drawn) [Example 4, 6-(2-chlorophenyl)-1-methyl-4-(3-methylmorpholin-4-yl)pyridin-2-one]	0.02	1
Cc1ccncc1-c1cc(N2CCOCC2C)cc(=O)[nH]1 (stereo not drawn) [Example 5, 4-(3-methylmorpholin-4-yl)-6-(4-methyl-3-pyridyl)-1H-pyridin-2-one]	0.1	14
CC1COCCN1c1cc(-c2cncnc2)[nH]c(=O)c1 (stereo not drawn) [Example 6, 4-(3-methylmorpholin-4-yl)-6-pyrimidin-5-yl-1H-pyridin-2-one]	1	14
CC1COCCN1c1cc(-c2ccccc2-c2ccccc2)[nH]c(=O)c1 (stereo not drawn) [Example 7, 4-(3-methylmorpholin-4-yl)-6-(2-phenylphenyl)-1H-pyridin-2-one]	0.06	
C[C@@H]1COCCN1c1cc(-c2cc(F)ccc2Cl)[nH]c(=O)c1 [Example 8, 6-(2-chloro-5-fluoro-phenyl)-4-[(3R)-3-methylmorpholin-4-yl]-1H-pyridin-2-one]	0.01	1
Cc1ccccc1-c1cc(N2CCOC[C@H]2C)cc(=O)[nH]1 [Example 9, 4-[(3R)-3-methylmorpholin-4-yl]-6-(o-tolyl)-1H-pyridin-2-one]	0.03	
C[C@@H]1COCCN1c1cc(-c2cccnc2C(F)(F)F)[nH]c(=O)c1 [Example 10, 4-[(3R)-3-methylmorpholin-4-yl]-6-[2-(trifluoromethyl)-3-pyridyl]-1H-pyridin-2-one]	0.02	0.09
C[C@@H]1COCCN1c1cc(-c2ccccc2Cl)[nH]c(=O)c1 [Example 11, 6-(2-chlorophenyl)-4-[(3R)-3-methylmorpholin-4-yl]-1H-pyridin-2-one]	0.007	0.6
C[C@@H]1COCCN1c1cc(-c2ccccc2C(F)(F)F)[nH]c(=O)c1 [Example 12, 4-[(3R)-3-methylmorpholin-4-yl]-6-[2-(trifluoromethyl)phenyl]-1H-pyridin-2-one]	0.007	0.6
C[C@@H]1COCCN1c1cc(-c2ccoc2)[nH]c(=O)c1 [Example 13, 6-(3-furyl)-4-[(3R)-3-methylmorpholin-4-yl]-1H-pyridin-2-one]	0.2	
Cc1cscc1-c1cc(N2CCOC[C@H]2C)cc(=O)[nH]1 [Example 14, 4-[(3R)-3-methylmorpholin-4-yl]-6-(4-methyl-3-thienyl)-1H-pyridin-2-one]	0.03	
C[C@@H]1COCCN1c1cc(-c2ccccc2NS(C)(=O)=O)[nH]c(=O)c1 [Example 15, N-[2-[4-[(3R)-3-methylmorpholin-4-yl]-6-oxo-1H-pyridin-2-yl]phenyl]methanesulfonamide]	0.2	
Cc1ccc2ncccc2c1-c1cc(N2CCOC[C@H]2C)cc(=O)[nH]1 [Example 16, 4-[(3R)-3-methylmorpholin-4-yl]-6-(6-methyl-5-quinolyl)-1H-pyridin-2-one]	0.2	
C[C@@H]1COCCN1c1cc(-c2ccc(-c3ccn[nH]3)cc2)[nH]c(=O)c1 [Example 17, 4-[(3R)-3-methylmorpholin-4-yl]-6-[4-(1H-pyrazol-5-yl)phenyl]-1H-pyridin-2-one]	0.2	
